Reference: patent US20240108618A1, “KRAS G12C INHIBITOR DOSING REGIMENS” (Eli Lilly and Company, priority 2022, published 2024)
Several values for one entry are separate records, joined by “and”; a condition that tells them apart may be missing. Equal values may be shown once. Entries after “also recorded” stand apart in the source; their conditions may differ.

Experiments:
[1] = tested on: KRAS G12C-mutant advanced NSCLC; assay: NCT04956640 Phase 1b Cohort B4 (with pembrolizumab) clinical response (BOR, ORR, DCR, DOR, TTR, % change from baseline, treatment duration); format: in vivo, human; details: for Time to response (TTR) 2 to <4 months / Time to response (TTR) <2 months: Phase 1b Cohort B4 responders
Protocol: The term “BOR” as used herein refers to best overall response based on investigator assessments using RECIST criteria (version 1.1). The minimum duration for BOR of SD is at least 6 weeks after the date of first dose of study drug.
The term “DOR” as used herein refers to duration of response, wherein DOR in months is calculated as the event or censoring date minus the response start date plus 1 day divided by 30.4375.
The term “ORR” as used herein refers to objective response rate, wherein objective response rate is the proportion of patients with BOR of CR or PR. Objective response rate, unconfirmed, is the proportion of patients with BOR of CR, PR, or uPR.
The term “TTR” as used herein refers to time to response, wherein TTR in months is calculated as response start date minus first dose date plus 1 day divided by 30.4375.

[2] = tested on: KYSE-410; assay: KYSE-410 (esophagus) xenograft model; format: in vivo, mouse
Protocol: (§1) For xenograft models of H1373, HCC44, MiaPaca-2, SW1463, SW837, KYSE-410 and UM-UC-3, typically 5-10×10^6 cells in a 1:1 matrigel mix (0.2 mL total volume) are implanted by subcutaneous injection in hind leg of nude mice. […] Treatment is initiated with oral administration (gavage) of testing compound or vehicle (20% captisol, 25 mM phosphate, pH2.0) in 0.2 mL volume when tumor size reaches approximately 200-300 mg. Tumor growth and body weight are monitored over time to evaluate efficacy and signs of toxicity. For EL3187 PDX model, frozen vials containing tumor fragments are thawed at 37° C. in a water bath. The tumor fragments are transferred to 50 mL Falcon tube and the ice cold DMEM medium is slowly added into the tube to a total volume of 35 mL. Then the tumor fragments are centrifuged at 130×g for 2 minutes at 4° C. and supernatant is aspirated. This washing step is repeated twice and the tumor fragments are resuspended in 10 mL DMEM for implantation into athymic nude-Foxn1nu mice (Envigo RMS, Inc., Mount Comfort, Indiana). Once tumor volumes reach 800 to 1000 mm^3, animals are sacrificed and tumors are harvested using aseptic technique. Fresh tumors are cut into 10 to 15 mm^3 fragments and placed into cold Gibco hibernate medium. The tumor fragments are subcutaneously implanted into animals with a 10 g trochar needle. When tumor size reaches 200 to 300 mm^3, the animals are randomized for compound treatment.
(§2) Among models listed in Table 2, EL3187 is a patient-derived xenograft (PDX) model, and all other are tumor xenograft models.

[3] = tested on: MiaPaca-2; assay: MiaPaca-2 (pancreas) xenograft model; format: in vivo, mouse
Protocol: as §1, §2

[4] = Phase 1b Cohort B4, Total (N = 13)
[5] = Phase 1b Cohort B4, individual patients, starting dose 50 BID, prior KRAS G12Ci Y
[6] = Phase 1b Cohort B4, individual patients, starting dose 100 BID, no prior KRAS G12Ci, listed as compound of Formula I
[7] = Phase 1b Cohort B4, individual patients, starting dose 150 BID, no prior KRAS G12Ci, listed as compound of Formula I
[8] = Phase 1b Cohort B4, individual patients, starting dose 150 BID, prior KRAS G12Ci Y, listed as compound of Formula I
[9] = Phase 1b Cohort B4, starting dose 50 mg BID (N = 1)
[10] = Phase 1b Cohort B4, starting dose 100 mg BID (N = 6)
[11] = Phase 1b Cohort B4, starting dose 150 mg BID (N = 6)
[12] = starting dose 50 mg BID (N = 1)
[13] = starting dose 100 mg BID (N = 6)
[14] = starting dose 150 mg BID (N = 6)

C=CC(=O)N1CCN2C(=O)c3cc(F)c(-c4ccc(F)c5sc(N)c(C#N)c45)c(Cl)c3OCC[C@H]2C1 (single isomer, unassigned) [Formula I]
Duration of response (DOR) <6 months ([1]; 50 mg BID): 0 (NE) n (%) | Patients with best overall response of CR or PR ([1]; 50 mg BID (N = 1)): 0 (0.0) N′ (%) | Duration of response (DOR) <6 months ([1]; 100 mg BID): 2 (100.0) n (%) | Patients with best overall response of CR or PR ([1]; 100 mg BID (N = 6)): 2 (33.3) N′ (%) | Duration of response (DOR) <6 months ([1]; 150 mg BID): 3 (100.0) n (%) | Patients with best overall response of CR or PR ([1]; 150 mg BID (N = 6)): 3 (50.0) N′ (%) | Best overall response (BOR): Complete Response (CR), % [1, 4]: (0.0) % | Best overall response (BOR): Not Evaluable (NE), % [1, 4]: (0.0) % | Best overall response (BOR): Partial Response (PR), % [1, 4]: (38.5) % | Best overall response (BOR): Partial Response, pending confirmation and ongoing (uPR), % [1, 4]: (30.8) % | Best overall response (BOR): Progressive Disease (PD), % [1, 4]: (7.7) % | Best overall response (BOR): Stable Disease (SD), % [1, 4]: (23.1) % | Disease control rate (CR + PR + IPR + SD), % [1, 4]: (92.3) % | Objective response rate (CR + PR), % [1, 4]: (38.5) % | Objective response rate, confirmed and unconfirmed (CR + PR + uPR), % [1, 4]: (69.2) % | Patients with best overall response of CR or PR [1, 4]: 5 (38.5) N′ (%) | Time to response (months), Interquartile range [1, 4]: 0.07 months | Time to response (months), Median [1, 4]: 1.38 months | % Change from Baseline in Sum of Diameters for all Target Lesions [1, 5]: 1.1% | Time (months) of Progressive Disease [1, 5]: 1.1 months | % Change from Baseline in Sum of Diameters for all Target Lesions [1, 6]: 0.0% and −40.9% and −45.1% and −59.4% and −82.8% | Best Response [1, 6]: PR Pending; also recorded: PR Confirmed | Time (months) of Partial Response - Confirmed [1, 6]: 1.3 months and 1.1 months | Time (months) of Partial Response - Pending Confirmation and Ongoing [1, 6]: 1.3 months and 1.4 months | % Change from Baseline in Sum of Diameters for all Target Lesions ([1]; Phase 1b Cohort B4, individual patients, starting dose 100 BID, prior KRAS G12Ci Y): 0.0% | % Change from Baseline in Sum of Diameters for all Target Lesions [1, 7]: −29.5% and −38.2% and −49.2% and −57.7% | Best Response [1, 7]: PR Pending; also recorded: PR Confirmed | Time (months) of Partial Response - Confirmed [1, 7]: 1.4 months (2×) and 3.0 months | Time (months) of Partial Response - Pending Confirmation and Ongoing ([1]; Phase 1b Cohort B4, individual patients, starting dose 150 BID, prior KRAS G12Ci Y): 1.1 months | % Change from Baseline in Sum of Diameters for all Target Lesions [1, 8]: −32.1% and 7.3% | Best Response [1, 8]: PR Confirmed | Best overall response (BOR): Complete Response (CR), % [1, 9]: (0.0) % | Best overall response (BOR): Not Evaluable (NE), % [1, 9]: (0.0) % | Best overall response (BOR): Partial Response (PR), % [1, 9]: (0.0) % | Best overall response (BOR): Partial Response, pending confirmation and ongoing (uPR), % [1, 9]: (0.0) % | Best overall response (BOR): Progressive Disease (PD), % [1, 9]: (100.0) % | Best overall response (BOR): Stable Disease (SD), % [1, 9]: (0.0) % | Disease control rate (CR + PR + IPR + SD), % [1, 9]: (0.0) % | Objective response rate (CR + PR), % [1, 9]: (0.0) % | Objective response rate, confirmed and unconfirmed (CR + PR + uPR), % [1, 9]: (0.0) % | Patients with best overall response of CR or PR [1, 9]: 0 (0.0) N′ (%) | Best overall response (BOR): Complete Response (CR), % [1, 10]: (0.0) % | Best overall response (BOR): Not Evaluable (NE), % [1, 10]: (0.0) % | Best overall response (BOR): Partial Response (PR), % [1, 10]: (33.3) % | Best overall response (BOR): Partial Response, pending confirmation and ongoing (uPR), % [1, 10]: (33.3) % | Best overall response (BOR): Progressive Disease (PD), % [1, 10]: (0.0) % | Best overall response (BOR): Stable Disease (SD), % [1, 10]: (33.3) % | Disease control rate (CR + PR + IPR + SD), % [1, 10]: (100.0) % | Objective response rate (CR + PR), % [1, 10]: (33.3) % | Objective response rate, confirmed and unconfirmed (CR + PR + uPR), % [1, 10]: (66.7) % | Patients with best overall response of CR or PR [1, 10]: 2 (33.3) N′ (%) | Time to response (months), Interquartile range [1, 10]: 0.26 months | Time to response (months), Median [1, 10]: 1.22 months | Best overall response (BOR): Complete Response (CR), % [1, 11]: (0.0) % | Best overall response (BOR): Not Evaluable (NE), % [1, 11]: 0.0% | Best overall response (BOR): Partial Response (PR), % [1, 11]: (50.0) % | Best overall response (BOR): Partial Response, pending confirmation and ongoing (uPR), % [1, 11]: (33.3) % | Best overall response (BOR): Progressive Disease (PD), % [1, 11]: (0.0) % | Best overall response (BOR): Stable Disease (SD), % [1, 11]: (16.7) % | Disease control rate (CR + PR + IPR + SD), % [1, 11]: (100.0) % | Objective response rate (CR + PR), % [1, 11]: (50.0) % | Objective response rate, confirmed and unconfirmed (CR + PR + uPR), % [1, 11]: (83.3) % | Patients with best overall response of CR or PR [1, 11]: 3 (50.0) N′ (%) | Time to response (months), Interquartile range [1, 11]: 1.61 months | Time to response (months), Median [1, 11]: 1.41 months | Time to response (TTR) 2 to <4 months ([1]; Total (N = 13)): 1 (20.0) n (%) | Time to response (TTR) <2 months ([1]; Total (N = 13)): 4 (80.0) n (%) | Time to response (TTR) 2 to <4 months [1, 12]: 0 (NE) n (%) | Time to response (TTR) <2 months [1, 12]: 0 (NE) n (%) | Time to response (TTR) 2 to <4 months [1, 13]: 0 (0.0) n (%) | Time to response (TTR) <2 months [1, 13]: 2 (100.0) n (%) | Time to response (TTR) 2 to <4 months [1, 14]: 1 (33.3) n (%) | Time to response (TTR) <2 months [1, 14]: 2 (66.7) n (%) | Duration of response (DOR) <6 months ([1]; Total): 5 (100.0) n (%) | Patients with best overall response of CR or PR ([1]; Total (N = 13)): 5 (38.5) N′ (%) | median time to response ([1]; human, in vivo): 1.4 month | tumor growth inhibition (%) or regression (− %) ([2]; 10 mg/kg BID x28): 51.5% | tumor growth inhibition (%) or regression (− %) ([2]; 10 mg/kg QD x28): 25.3% | tumor growth inhibition (%) or regression (− %) ([2]; 30 mg/kg BID x28): 61.8% | tumor growth inhibition (%) or regression (− %) ([2]; 30 mg/kg QD x28): 66.7% | tumor growth inhibition (%) or regression (− %) ([3]; 5 mg/kg BID x28): −36.1% | tumor growth inhibition (%) or regression (− %) ([3]; 5 mg/kg QD x28): 81.7% | tumor growth inhibition (%) or regression (− %) ([3]; 10 mg/kg BID x28): −45.2% | tumor growth inhibition (%) or regression (− %) ([3]; 10 mg/kg QD x28): −27% | tumor growth inhibition (%) or regression (− %) ([3]; 30 mg/kg BID x28): −43.6% | tumor growth inhibition (%) or regression (− %) ([3]; 30 mg/kg QD x28): −42%
